Measured values reported in US6534480B2, “Compositions for increasing energy in vivo” (Bioenergy Inc., priority 1999, dated 2003).

Experiments:
[1] = system: de novo synthesis of AMP; details: ribose added to the perfusate; cited from earlier work
[2] = Sprint power output and well-being in normal untrained subjects (planned); format: in vivo, human; details: 5 grams of D-ribose in 200 ml. of water after each sprint bout
From the text: D-ribose, given immediately before and during exercise, can provide a benefit to those subjects who have not been previously trained. Four healthy, normal male volunteers will be tested for sprint power output on an exercycle, as for Example 2 above. Each subject will serve as their own control. Between the sprint bouts, the subjects will cycle slowly and continuously. Total test time will be one hour, with four sprint bouts during the test. Following the initial baseline test and following each sprint bout, the subjects will be given 5 grams of D-ribose in 200 ml. of water or a similar tasting placebo (glucose). Sprint power output will be tested 15 minutes after each ingesting of the test solutions. Each subject will undergo two sessions, one week apart, one with ribose and one with placebo, in randomized order. The placebo will be sweetened with glucose in order to be indistinguishable from the ribose solution.

[3] = system: ATP; assay: ATP in vastis lateralis muscle biopsies (Ribose Athlete Study); format: in vivo, human; details: for ATP Recovery % of Pre: 48 hours recovery vs initial level
Procedure: Four healthy, fit subjects in the age range 24 to 26 years of age were tested. The group was selected to be homogeneous regarding fitness level, gender and mean age with no known metabolic, neuronal, endocrine or cardiopulmonary disorders. All were capable of or had experience with cycling. The study protocol included four phases: (1) an initial baseline phase consisting of no exercise session; (2) a loading phase including three days of administration of either D-ribose or placebo (glucose) three times per day; (3) a training phase of three days employing exercise sessions characterized by serial (N=6) bouts of short (10 second) high-intensity cycle sprints at 7% body mass resistance with 50 second rest periods between sprints twice per day (morning and afternoon), and (4) a recovery phase for a period of 48 hours after the final training session. FIG. 1 is a diagram of a single cycle sprint bout. Muscle biopsies (MB) were performed on the […] lateralis muscle using both legs in order to evenly distribute and minimize sampling and possible muscle soreness per leg due to the biopsy itself. The first MB was collected at rest at the beginning of the study to establish a baseline and immediately after the first training-session of day 0 or the first phase. During the loading phase, no MB was taken. Muscle Biposies were taken following the final training session and after 48 hours of recovery. Two subjects were randomly selected for inclusion into the placebo or ribose group. Ribose or glucose was administered orally in a 250 ml iso-osmotic solution containing 10.0 grams of either ribose or placebo three times per day for three days preceding training (loading phase) and for three days during training (training phase). One-half liter isotonic electrolyte solution was given immediately post exercise and again 30 minutes later to avoid dehydration. The concentration of the following analytes was determined in the MB samples: ATP, ADP, AMP, IMP (inosine monophosphate), TAN (total adenine nucleotides), creatine phosphate and creatine.

[4] = oral, humans; cited from earlier work
[5] = Self administration of ribose, subject with low energy after systemic bacterial infection; format: in vivo, human
From the text: An example of a subject having no overt disease who benefitted from self-administered ribose is a person. They had adhered to a strict weekly exercise regimen most of their life until sustaining a systemic bacterial infection, which required admission to the intensive care unit for one month and rehabilitation for an additional month. Their cardiovascular and pulmonary systems were predominantly affected during and following their illness and function had not recovered to its previous levels, or to their satisfaction, after one year.
Following convalescence, they have attempted to resume an exercise regimen, which involves running on a treadmill four days a week and lifting weights for two days a week. The runs were restricted to short intervals. Following the daily exercises, they have continuously experienced fatigue to the point of exhaustion and has required frequent naps. The patient began self-administering oral D-ribose at two doses per day, 4-5 grams per dose. Within seven days, they testified that their “pep” and exercise tolerance increased. For the first time since their illness, they are able to run as long as 30 minutes on the treadmill. They still experience a Degree of fatigue, but has been able to discontinue the naps after exercise. They continue on the daily oral doses of ribose, along with their scheduled exercises and feels a continuing improvement in their energy level after four weeks of ribose administration.

[6] = Treadmill test (Bruce protocol), single patient with stable coronary artery disease; format: in vivo, human
Procedure: The patient was tested for treadmill performance. After two baseline treadmill tests, following the Bruce protocol, they received orally administered D-ribose (40 gm in three divided doses daily) for three days and completed a third treadmill test. […] In each test, this patient concluded the test due to shortness of breath, but experienced no angina.
It is generally accepted that the product of heart rate and systemic pressure is a measure of myocardial function and energy level, with lower numbers indicating better myocardial function. As a result of the administration of ribose, average tolerated time on the treadmill increased.

## O=C[C@H](O)[C@H](O)[C@H](O)CO [Ribose, D-ribose]
[1]
  de novo synthesis of AMP in sedentary muscle: increases the de novo synthesis of AMP
  decline in de novo synthesis in contracting muscle: does not eliminate the decline
[2]
  subjective feeling of well being: subjectively higher feeling of well being
[2]; sustained mild exercise
  sprint power output after ribose vs placebo: higher power output
[3]
  ATP Recovery % of Pre: 82%
[3]; listed as ribose
  ATP Recovery % of Pre: 82%
[3]; in vivo
  ATP Change Post-Rec: 6.90 mmol/kg dw
  ATP Change Pre-Post: −11.43 mmol/kg dw
[3]; muscle biopsy after 48 hours of recovery
  Mean ATP Values, Recovery: 20.80 mmol/kg dw
[3]; muscle biopsy following the final training session
  Mean ATP Values, Post: 13.90 mmol/kg dw
[3]; muscle biopsy, after three days ribose loading, before training
  Mean ATP Values, Pre: 25.33 mmol/kg dw
[4]
  treatment of cardiac insufficiency and hypovolemic shock: effective
[5]; four weeks of oral ribose administration
  adverse effects: no adverse effects
[5]; oral D-ribose two doses per day, 4-5 grams per dose
  time able to run on the treadmill: ≤ 30 min
[5]; within seven days of oral D-ribose, two doses per day, 4-5 grams per dose
  "pep" and exercise tolerance: increased
[6]; 0 (rest), Test vs average of two baselines
  Rate-pressure product, % change: −9.55%
[6]; 0 (rest), oral D-ribose 40 gm in three divided doses daily for three days
  Rate-pressure product (beats per minute times systolic blood pressure mm Hg), Test: 9,177
[6]; 3 minutes on treadmill, after D-ribose
  Rate-pressure product (beats per minute times systolic blood pressure mm Hg), Test: 15,272
[6]; 3 minutes, Test vs average of two baselines
  Rate-pressure product, % change: −1.60%
[6]; 6 minutes on treadmill, after D-ribose
  Rate-pressure product (beats per minute times systolic blood pressure mm Hg), Test: 20,592
[6]; 6 minutes, Test vs average of two baselines
  Rate-pressure product, % change: −15.68%
[6]; 9 minutes on treadmill, after D-ribose
  Rate-pressure product (beats per minute times systolic blood pressure mm Hg), Test: 25,356
[6]; 9 minutes, Test vs average of two baselines
  Rate-pressure product, % change: −9.87%
[6]; Test vs average of two baselines
  Tolerated time, % change: 5.06%
[6]; during ribose administration
  patient's subjective report: feeling more energetic
[6]; treadmill, Bruce protocol, after D-ribose
  Tolerated time, Test: 540.00 s
